Measurements from PubChem BioAssay (NCI).
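Compound exposure: 48 hours, 5 concentrations, 96-well plates. TGI: total growth inhibition.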

Columns and labels:
Test in all cases: DTP human tumour cell line panel, 48 h
[1] = test system: UACC-257 melanoma
[2] = test system: KM12 colon
[3] = test system: NCI-H23 lung
[4] = test system: M14 melanoma
[5] = test system: SK-MEL-2 melanoma
[6] = test system: LOX IMVI melanoma
[7] = test system: 786-0 renal
[8] = test system: NCI-H522 lung
[9] = test system: SF-295 CNS
[10] = test system: CAKI-1 renal
[11] = test system: SK-MEL-28 melanoma
[12] = test system: T-47D breast
[13] = test system: MDA-MB-231 breast
[14] = test system: SNB-19 CNS
[15] = test system: HS 578T breast
[16] = test system: U251 CNS
[17] = test system: HOP-92 NSCLC
[18] = test system: CCRF-CEM leukemia
[19] = test system: MALME-3M melanoma
[20] = test system: HT29 colon
[21] = test system: PC-3 prostate
[22] = test system: K-562 leukemia
[23] = test system: HCT-15 colon
[24] = test system: BT-549 breast
[25] = test system: NCI/ADR-RES ovarian
[26] = test system: RPMI-8226 leukemia
[27] = test system: SW-620 colon
[28] = test system: SF-268 CNS
[29] = test system: OVCAR-4 ovarian
[30] = test system: SR leukemia
[31] = test system: A498 renal
[32] = test system: DU-145 prostate
[33] = test system: OVCAR-8 ovarian
[34] = test system: HCC-2998 colon
[35] = test system: OVCAR-3 ovarian
[36] = test system: UO-31 renal
[37] = test system: HOP-62 NSCLC
[38] = test system: A549 NSCLC
[39] = test system: EKVX NSCLC
[40] = test system: MDA-MB-435
[41] = test system: HL-60(TB) leukemia
[42] = test system: MOLT-4 leukemia
[43] = test system: ACHN renal
[44] = test system: OVCAR-5 ovarian
[45] = test system: MDA-N
[46] = test system: TK-10 renal
[47] = test system: IGROV1 ovarian
[48] = test system: MCF7 breast
[49] = test system: UACC-62 melanoma
[50] = test system: SK-MEL-5 melanoma
[51] = test system: SK-OV-3 ovarian
[52] = test system: COLO 205 colon
[53] = test system: SN12C renal
[54] = test system: NCI-H460 lung
[55] = test system: SNB-75 CNS
[56] = test system: HCT-116 colon
[57] = test system: RXF 393 renal
[58] = test system: NCI-H226 lung
[59] = test system: SF-539 CNS

## Cc1cc(C)nc(NS(=O)(=O)c2ccc(Nc3c4ccccc4nc4c(C(=O)NNCCO)cccc34)cc2)n1
[1]
  TGI: > 100 µM
[2]
  TGI: > 100 µM
[3]
  TGI: > 100 µM
[4]
  TGI: > 100 µM
[5]
  TGI: > 100 µM
[6]
  TGI: > 100 µM
[7]
  TGI: > 100 µM
[8]
  TGI: > 100 µM
[9]
  TGI: > 100 µM
[10]
  TGI: > 100 µM
[11]
  TGI: > 100 µM
[12]
  TGI: > 100 µM
[13]
  TGI: > 100 µM
[14]
  TGI: > 100 µM
[15]
  TGI: > 100 µM
[16]
  TGI: > 100 µM
[17]
  TGI: > 100 µM
[18]
  TGI: > 100 µM
[19]
  TGI: > 100 µM
[20]
  TGI: > 100 µM
[21]
  TGI: > 100 µM
[22]
  TGI: > 100 µM
[23]
  TGI: > 100 µM
[24]
  TGI: > 100 µM
[25]
  TGI: > 100 µM
[26]
  TGI: > 100 µM
[27]
  TGI: > 100 µM
[28]
  TGI: > 100 µM
[29]
  TGI: > 100 µM
[30]
  TGI: > 100 µM
[31]
  TGI: > 100 µM
[32]
  TGI: > 100 µM
[33]
  TGI: > 100 µM
[34]
  TGI: > 100 µM
[35]
  TGI: > 100 µM
[36]
  TGI: > 100 µM
[37]
  TGI: > 100 µM
[38]
  TGI: > 100 µM
[39]
  TGI: > 100 µM
[40]
  TGI: > 100 µM
[41]
  TGI: > 100 µM
[42]
  TGI: > 100 µM
[43]
  TGI: > 100 µM
[44]
  TGI: > 100 µM
[45]
  TGI: > 100 µM
[46]
  TGI: > 100 µM
[47]
  TGI: > 100 µM
[48]
  TGI: > 100 µM
[49]
  TGI: > 100 µM
[50]
  TGI: > 100 µM
[51]
  TGI: > 100 µM
[52]
  TGI: > 100 µM
[53]
  TGI: > 100 µM
[54]
  TGI: > 100 µM

## Nc1ccc(N(S(=O)(=O)c2ccccc2)S(=O)(=O)c2ccccc2)c(Cl)c1
[1]
  TGI: > 100 µM
[2]
  TGI: > 100 µM
[3]
  TGI: > 100 µM
[4]
  TGI: > 100 µM
[5]
  TGI: > 100 µM
[6]
  TGI: > 100 µM
[7]
  TGI: > 100 µM
[8]
  TGI: > 100 µM
[9]
  TGI: > 100 µM
[10]
  TGI: > 100 µM
[11]
  TGI: > 100 µM
[12]
  TGI: > 100 µM
[13]
  TGI: > 100 µM
[14]
  TGI: > 100 µM
[15]
  TGI: > 100 µM
[16]
  TGI: > 100 µM
[55]
  TGI: > 100 µM
[56]
  TGI: > 100 µM
[17]
  TGI: > 100 µM
[19]
  TGI: > 100 µM
[20]
  TGI: > 100 µM
[21]
  TGI: > 100 µM
[22]
  TGI: > 100 µM
[23]
  TGI: > 100 µM
[24]
  TGI: > 100 µM
[25]
  TGI: > 100 µM
[26]
  TGI: > 100 µM
[27]
  TGI: > 100 µM
[28]
  TGI: > 100 µM
[29]
  TGI: > 100 µM
[30]
  TGI: > 100 µM
[31]
  TGI: 98.2 µM
[32]
  TGI: > 100 µM
[33]
  TGI: > 100 µM
[34]
  TGI: 64.2 µM
[36]
  TGI: > 100 µM
[37]
  TGI: > 100 µM
[38]
  TGI: > 100 µM
[39]
  TGI: > 100 µM
[40]
  TGI: > 100 µM
[42]
  TGI: 60.5 µM
[43]
  TGI: > 100 µM
[57]
  TGI: > 100 µM
[44]
  TGI: > 100 µM
[45]
  TGI: > 100 µM
[58]
  TGI: > 100 µM
[46]
  TGI: > 100 µM
[47]
  TGI: > 100 µM
[48]
  TGI: > 100 µM
[49]
  TGI: > 100 µM
[50]
  TGI: 50.4 µM
[52]
  TGI: > 100 µM
[53]
  TGI: > 100 µM
[54]
  TGI: > 100 µM
[59]
  TGI: > 100 µM
